Source: US4353923A, “Pharmaceutical composition containing a benzofurancarboxamide derivative as the active ingredient” (Kyowa Hakko Kogyo Co., Ltd., priority 1980, dated 1982)
Structures can show the parent of a compound that is named as a salt.

Key:
male dd mice [1] = experiment: Muscle relaxant activity: rotating rod test; format: in vivo; conditions: 5 mice per group
Method: (§1) In this example, 5 male dd mice weighing 20±1 g were used as one group. Prior to the experiments, mice were placed on the rod having a diameter of 3 cm and rotating at 5 r.p.m. in the reverse direction of the rotation. […] The drugs were orally administered and the muscle relaxant activity with the passage of time was examined by the following tests.
Rotating rod test: The same mouse was placed on the rotating rod to observe whether it falls or not within 2 minutes.
(§2) In each test, the drug was considered to have a muscle relaxant activity when the mouse fell.

male dd mice [2] = experiment: Analgesic activity: acetic acid writhing; format: in vivo; conditions: Mus musculus, po, 1 h, acetic acid i.p. after 60 min, read-out: Inhibition ratio (writhes, vs control); for inhibition in vivo at 50 mg/kg: 50 mg/kg p.o.; for inhibition in vivo at 150 mg/kg: 150 mg/kg p.o.
Method: In this experiment, 10 male dd mice weighing 20±1 g were used as one group for examination of analgesic activity. Sixty minutes after oral administration of each drug to each animal, 0.2 ml of a 0.7% acetic acid solution was intraperitoneally administered to the animal. Starting 10 minutes after the administration of acetic acid, the number of writhes occurred in 10 minutes was counted. Average number of writhes and inhibition ratio in comparison with control group were calculated.

in vivo = conditions: mouse, po, mice, deaths counted for 7 days
Method: In this example, 3-7 male dd mice weighing 20±1 g were used as one group. Each drug was suspended in a 0.3% CMC solution and orally administered. After the administration, number of dead animals was counted for 7 days to determine LD50 value. As the reference drugs, mepirizole and benzydamine hydrochloride were dissolved in water and orally administered. The drugs and the reference drugs were also administered in the same manner as above in Examples 2-5.

male Wistar rats = experiment: Anti-inflammatory activity: carrageenin edema method; format: in vivo; conditions: Rattus norvegicus, po, 3 hours after carrageenin, read-out: Inhibition ratio (paw swelling, vs control); for inhibition in vivo at 150 mg/kg: 150 mg/kg p.o.
Method: In this experiment, 5 male Wistar rats weighing 140±10 g were used as one group. Sixty minutes after oral administration of each drug to each animal, 0.1 ml of a 1% carrageenin solution as a phlogistic agent was injected into the plantar surface of the right hind paw of the animal to induce inflammation. The volume of the paw was measured before and 3 hours after the injection of the phlogistic agent. Swelling ratio and inhibition ratio in comparison with control group were calculated.

male dd mice [3] = experiment: Muscle relaxant activity: slant test; format: in vivo; conditions: 5 mice per group
Method: as §1
Slant test: Each mouse was placed on a wire net inclined at an angle of 45° to observe whether it falls or not.
as §2

male dd mice [4] = experiment: Muscle relaxant activity: traction test; format: in vivo; conditions: 5 mice per group
Text: as §1
Traction test: Forefeet of the same mouse were placed on a wire to observe whether it falls or not.
as §2

male dd mice [5] = experiment: Anticonvulsant activity: maximal electroshock convulsion test; format: in vivo; conditions: Mus musculus, po, 1 h, 60 min after administration, read-out: Maximal electroshock convulsion test, inhibition ratio; for responders at 25 mg/kg: 25 mg/kg p.o.; for responders at 50 mg/kg: 50 mg/kg p.o.; for responders at 75 mg/kg: 75 mg/kg p.o.; for responders at 100 mg/kg: 100 mg/kg p.o.
Text: Anticonvulsant activity was examined according to maximal electroshock convulsion test.
In this experiment, 10 male dd mice weighing 23±1 g were used as one group. Each drug was orally administered to the animals. Sixty minutes after the administration, an electric current (2000 V, 50 mA) was applied to both eyes of the mouse for 0.2 second. Drug activity was judged according to whether tonic extensor seizures were observed or not.

## Cc1c(C(=O)N(C)C)oc2cc(Cl)ccc12 [Compound (B), 6-Chloro-N,N,3-trimethyl-benzo[b]furan-2-carboxamide]
Male dd mice [1]; 75 mg/kg p.o., 1 hr
  Number of dropped mice, rotating rod test: 5 mice
Male dd mice [1]; 75 mg/kg p.o., 2 hr
  Number of dropped mice, rotating rod test: 4 mice
Male dd mice [1]; 75 mg/kg p.o., 3 hr
  Number of dropped mice, rotating rod test: 4 mice
Male dd mice [1]; 150 mg/kg p.o., 1 hr
  Number of dropped mice, rotating rod test: 5 mice
Male dd mice [1]; 150 mg/kg p.o., 2 hr
  Number of dropped mice, rotating rod test: 5 mice
Male dd mice [1]; 150 mg/kg p.o., 3 hr
  Number of dropped mice, rotating rod test: 5 mice
Male dd mice [2]
  inhibition in vivo at 50 mg/kg: 34.9%
  inhibition in vivo at 150 mg/kg: 95.4%
In vivo
  LD50 at 168 h: 500 to 1000 mg/kg
Male Wistar rats
  inhibition in vivo at 150 mg/kg: 39.8%
Male dd mice [3]; 300 mg/kg p.o., 1 hr
  Number of dropped mice, slant test: 5 mice
Male dd mice [3]; 300 mg/kg p.o., 2 hr
  Number of dropped mice, slant test: 5 mice
Male dd mice [3]; 300 mg/kg p.o., 3 hr
  Number of dropped mice, slant test: 5 mice
Male dd mice [4]; 75 mg/kg p.o., 1 hr
  Number of dropped mice, traction test: 3 mice
Male dd mice [4]; 75 mg/kg p.o., 2 hr
  Number of dropped mice, traction test: 4 mice
Male dd mice [4]; 75 mg/kg p.o., 3 hr
  Number of dropped mice, traction test: 2 mice
Male dd mice [4]; 150 mg/kg p.o., 1 hr
  Number of dropped mice, traction test: 5 mice
Male dd mice [4]; 150 mg/kg p.o., 2 hr
  Number of dropped mice, traction test: 5 mice
Male dd mice [4]; 150 mg/kg p.o., 3 hr
  Number of dropped mice, traction test: 5 mice
Male dd mice [5]
  responders at 25 mg/kg: 0%
  responders at 50 mg/kg: 40%
  responders at 75 mg/kg: 60%

## CN(C)CCCOc1nn(Cc2ccccc2)c2ccccc12 [Benzydamine hydrochloride, benzydamine hydrochloride, reference compound]
Male dd mice [1]; 300 mg/kg p.o., 1 hr
  Number of dropped mice, rotating rod test: 5 mice
Male dd mice [1]; 300 mg/kg p.o., 2 hr
  Number of dropped mice, rotating rod test: 3 mice
Male dd mice [1]; 300 mg/kg p.o., 3 hr
  Number of dropped mice, rotating rod test: 2 mice
Male dd mice [2]
  inhibition in vivo at 50 mg/kg: 0%
Male dd mice [2]; 200 mg/kg p.o.
  inhibition in vivo at 200 mg/kg: 83.7%
In vivo
  LD50 at 168 h: 500 to 1000 mg/kg
Male Wistar rats; 100 mg/kg p.o.
  inhibition in vivo at 100 mg/kg: 14.4%
Male Wistar rats; 200 mg/kg p.o.
  inhibition in vivo at 200 mg/kg: 23.5%
Male dd mice [3]; 300 mg/kg p.o., 1 hr
  Number of dropped mice, slant test: 4 mice
Male dd mice [3]; 300 mg/kg p.o., 2 hr
  Number of dropped mice, slant test: 2 mice
Male dd mice [3]; 300 mg/kg p.o., 3 hr
  Number of dropped mice, slant test: 0 mice
Male dd mice [4]; 300 mg/kg p.o., 1 hr
  Number of dropped mice, traction test: 5 mice
Male dd mice [4]; 300 mg/kg p.o., 2 hr
  Number of dropped mice, traction test: 1 mice
Male dd mice [4]; 300 mg/kg p.o., 3 hr
  Number of dropped mice, traction test: 0 mice
Male dd mice [5]
  responders at 50 mg/kg: 35%
  responders at 75 mg/kg: 90%
  responders at 100 mg/kg: 100%
Male dd mice [5]; 300 mg/kg p.o.
  responders at 300 mg/kg: 100%

## Cc1c(C(=O)N(C)C)oc2c(Cl)cccc12 [Compound (C), 7-chloro-N,N,3-trimethylbenzo[b]furan-2-carboxamide]
Male dd mice [1]; 25 mg/kg p.o., 1 hr
  Number of dropped mice, rotating rod test: 3 mice
Male dd mice [1]; 25 mg/kg p.o., 2 hr
  Number of dropped mice, rotating rod test: 1 mice
Male dd mice [1]; 25 mg/kg p.o., 3 hr
  Number of dropped mice, rotating rod test: 0 mice
Male dd mice [1]; 50 mg/kg p.o., 1 hr
  Number of dropped mice, rotating rod test: 5 mice
Male dd mice [1]; 50 mg/kg p.o., 2 hr
  Number of dropped mice, rotating rod test: 5 mice
Male dd mice [1]; 50 mg/kg p.o., 3 hr
  Number of dropped mice, rotating rod test: 2 mice
Male dd mice [1]; 100 mg/kg p.o., 1 hr
  Number of dropped mice, rotating rod test: 5 mice
Male dd mice [1]; 100 mg/kg p.o., 2 hr
  Number of dropped mice, rotating rod test: 5 mice
Male dd mice [1]; 100 mg/kg p.o., 3 hr
  Number of dropped mice, rotating rod test: 5 mice
Male dd mice [2]
  inhibition in vivo at 50 mg/kg: 85.3%
  inhibition in vivo at 150 mg/kg: 100%
In vivo
  LD50 at 168 h: > 1000 mg/kg
Male Wistar rats
  inhibition in vivo at 150 mg/kg: 35.1%
Male Wistar rats; 300 mg/kg p.o.
  inhibition in vivo at 300 mg/kg: 57.8%
Male dd mice [3]; 50 mg/kg p.o., 1 hr
  Number of dropped mice, slant test: 5 mice
Male dd mice [3]; 50 mg/kg p.o., 2 hr
  Number of dropped mice, slant test: 4 mice
Male dd mice [3]; 50 mg/kg p.o., 3 hr
  Number of dropped mice, slant test: 1 mice
Male dd mice [3]; 100 mg/kg p.o., 1 hr
  Number of dropped mice, slant test: 5 mice
Male dd mice [3]; 100 mg/kg p.o., 2 hr
  Number of dropped mice, slant test: 5 mice
Male dd mice [3]; 100 mg/kg p.o., 3 hr
  Number of dropped mice, slant test: 5 mice
Male dd mice [4]; 25 mg/kg p.o., 1 hr
  Number of dropped mice, traction test: 0 mice
Male dd mice [4]; 25 mg/kg p.o., 2 hr
  Number of dropped mice, traction test: 0 mice
Male dd mice [4]; 25 mg/kg p.o., 3 hr
  Number of dropped mice, traction test: 0 mice
Male dd mice [4]; 50 mg/kg p.o., 1 hr
  Number of dropped mice, traction test: 5 mice
Male dd mice [4]; 50 mg/kg p.o., 2 hr
  Number of dropped mice, traction test: 4 mice
Male dd mice [4]; 50 mg/kg p.o., 3 hr
  Number of dropped mice, traction test: 1 mice
Male dd mice [4]; 100 mg/kg p.o., 1 hr
  Number of dropped mice, traction test: 5 mice
Male dd mice [4]; 100 mg/kg p.o., 2 hr
  Number of dropped mice, traction test: 5 mice
Male dd mice [4]; 100 mg/kg p.o., 3 hr
  Number of dropped mice, traction test: 5 mice
Male dd mice [5]
  responders at 25 mg/kg: 40%
  responders at 50 mg/kg: 66.7%
  responders at 75 mg/kg: 80%
  responders at 100 mg/kg: 100%
